Molecules are shown by their SMILES.

The test system of the assay is Egln1^Tie2Cre mice. The assay is described as follows: C76 treatment of Egln1Tie2Cre mice: LV hypertrophy and cardiac fibrosis. The settings on record: 3 week-old Egln1^Tie2Cre mice treated for 11 weeks. The assay is classed as in vivo. The method, then: Egln1^Tie2Cre mice, Egln1/Hif1a^Tie2Cre and Egln1/Hif2a^Tie2Cre double knockout mice were generated as described previously^16. Egln1^EndoCreERT2 mice were generated by crossing Egln1 floxed mice with EndoSCL-CreERT2 transgenic mice expressing the tamoxifen-inducible Cre recombinase under the control of the 5′ endothelial enhancer of the stem cell leukemia locus^23. At 8 weeks of age, Egln1^EndoCreERT2 and Egln1^f/f mice were treated with 2 mg tamoxifen intraperitoneally for 5 days to induced Egln1 deletion only in ECs. Mice were scarified at the age of ˜9 months. Both male and female mice were used in these studies. The use of animals was in compliance with the guidelines of the Animal Care and Use Committee of the Northwestern University and of the University of Arizona.
For Wheat Germ Agglutinin (WGA) staining, WGA conjugated with FITC or WGA conjugated with Alexa 647 were stained with cryosectioned slides at room temple for 10 mins.
For histological assessment, hearts were harvested and washed with PBS, followed by fixation in 4% formalin and dehydrated in 70% ethanol. After paraffin processing, the tissues were cut into semi-thin […] thick sections. Sections were stained with H & E staining or Masson's trichrome kit as a service of charge at Core Facility.
To assess the therapeutic potential of HIF-2α inhibition for cardiomyopathy, we treated 3 week-old Egln1^Tie2Cre mice with the HIF-2α translation inhibitor C76^31,35 for 11 weeks.

Take `COC(=O)c1sccc1N/N=C(\C#N)S(C)(=O)=O` [C76, methyl 3-[(2E)-2-[cyano(methylsulfonyl)methylidene]hydrazinyl]thiophene-2-carboxylate]: the “cardiomyocyte surface area assessed by WGA staining” value (FIGS. 10B and 10C) is given as “significantly attenuated”. The “perivascular fibrosis by trichrome staining” value (FIGS. 10D and 10E) was “significantly attenuated”. The “LV/BW ratio (LV hypertrophy)” value (compared to vehicle treatment, cardiac dissection (FIG. 10A)) is on record as “decreased”.

Values taken from patent US20230104671A1, “METHODS AND COMPOSITIONS FOR TREATING CARDIOMYOPATHY AND HEART FAILURE” (Ann and Robert H. Lurie Children's Hospital of Chicago, priority 2021, published 2023).
